Laboratory results: patent US20220152071A1, “MARKERS OF EFFICACY OF TOPOISOMERASE POISONS” (Northwestern University, priority 2019, published 2022)

Key:
FANCB KO SNB19 cells = test: Viability assay, FANCB KO cells; assay type: cell-based, human; conditions: 5 μM, 72 hrs
Description: (§1) Single gene editing. To edit FANCB and RPS11, we used single guide RNAs that were enriched for both genes as well as the non-targeting controls. Briefly, these guides were synthesized by Synthego and following the protocol, we prepared the ribonucleoprotein complexes by mixing the guides (180 pmol) with recombinant Cas9 protein (Synthego) 20 pmol in […]. The complexes were allowed to form at room temp for 15 mins, and then […] of Opti-MEM I reduced serum medium and […] of lipofectamine Cas9 plus reagent were then added. Both, the cells and the formed ribonucleoprotein complexes, were seeded at the same time with 150,000 SNB19 cells in a T25 flask. The cells were incubated for 4 days.
(§2) Viability assay. […] Titre glo was added following incubation with drugs. (Cat No: G7572) and the viability of cells was analyzed 5 min later by measuring the luminescence. We normalized the intensity against DMSO treated cells of each cell line or PDX or the edited cell and then determined the survival. Pictures of these cells were also taken as shown in the source data figures.

RPS11 KO SNB19 cells = test: Viability assay, RPS11 KO cells; assay type: cell-based, human; conditions: 5 μM, 72 hrs
Description: as §1, §2

U251 [1] = test: Click-it Plus OPP nascent protein synthesis; assay type: cell-based, human; conditions: U251, 5 μM, 24 hrs
SNB19 cells = test: Genome-wide CRISPR KO screen, etoposide selection; assay type: cell-based, human; conditions: etoposide 5 μM, 14 days, CRISPR KO library SNB19 cells
Description: Large scale cell culture and expansion. To perform the CRISPR screening, SNB19 cells were expanded to 500 million and then spinfected with 70,000sgRNA. After spinfection, the cells are selected with 0.6 μg/ml of puromycin for 4 days. This selection is aimed at the cells that have been rightly integrated with the sgRNA that incorporates the puromycin cassette into their genome. […] We used 50 million of selected cells for the extraction of genomic DNA. The base sgRNA representation is obtained by amplification of the sgRNA with unique barcoded primers. The remaining 100 million cells were expanded for 2 days, once cells grew to 200 million. […] After 14 days, the cells were harvested, the gDNA extracted, and the sgRNA amplified with another unique barcoded primer.

APAF1, RPS11 KO cells = test: APAF1 expression (qRT-PCR, Western blot); assay type: cell-based, human
Description: (§3) Western blot. […] The cells were lysed using water bath ultrasonicator for 4 mins. Cell lysate were cleared by centrifugation. We measured the concentration of protein in lysates. Denatured lysates were loaded into 4-20% Tris-glycine gels (Novex) and separated at 180V for 2 hrs. The gels were transferred unto a PVDF membrane by semi-dry blotting for 1 hr. We blocked the membrane in 5% non-fat milk TBST buffer for 30 mins and incubated with primary antibodies RPS11 (1:500), FANCB (1:500), GAPDH or ACTB (1:1500) in 5% BSA respectively over night shaking at 4° C. Primary antibodies were removed and we added the secondary polyclonal HRP (1:20,000) in TBST and incubated shaking for 2 hrs at room temp. The membrane were washed 6× in TBST and then developed with ECL (Cat No: 1705061) and band imaged on a Bio-Rad Chemi-doc imaging system. qRT-PCR. […] The total RNA was extracted using Zymo Research kit (Direct-zol RNA Miniprep Plus, Cat no: R2070). The quality of the RNA was determined by RNA pico bioanalyzer measuring the 18S and 28S ribosome. Using the superscript III first strand synthesis system (Cat no: 18080-051), we generated cDNA and performed qPCR with APAF1 and ACTB primers in triplicates and fold change of expression of APAF1 were normalized against actin B (ACTB).

[2] = tested on: APAF1, SNB19 WT and non-targeting control cells; test: APAF1 expression (qRT-PCR, Western blot); assay type: cell-based, human
Description: as §3

[3] = tested on: resistant glioma cell lines; test: Viability assay, resistant glioma cell lines; assay type: cell-based, human; conditions: etoposide 5 μM, 72 hrs
Description: as §2

GBM6 [4] = test: Click-it Plus OPP nascent protein synthesis; assay type: cell-based, human; conditions: GBM6, 5 μM, 24 hrs
BCL2, GBM12 = test: BCL2 expression by flow cytometry; assay type: cell-based, human; conditions: GBM12, 24 hrs
Description: (§4) Click-it Plus OPP Assay, Apoptosis Assay and Flow Cytometry. To determine if nascent protein synthesis is impaired upon editing of RPS11 and FANCB. We seeded edited cells SgRPS11, SgFANCB, wild type SNB19 and the non-targeting controls in a 96 well plate with black covers overnight at 4,000 cells/well. […] Following the protocol from Life technologies (Cat No: C10456), we added the Click-it OPP (1:1000), or Caspase 3/7 (Cat no: C10427) or with antibodies against BID, BCL2 or APAF1 for 30 mins. After washing cells were fixed and primary antibodies were detected secondary antibodies conjugated to Alexa Flour 488. The fluorophore intensity was measured by flow cytometry (LSR Fortessa 1 analyzer). As a complementary approach, the labelled cells were also imaged in a fluorescent microscope (Nikon Ti2 Widefield).

[5] = gliomas and brain metastases, systemic administration, human; cited from earlier work
[6] = tested on: BID, susceptible glioma cells; test: BID expression by flow cytometry; assay type: cell-based, human; conditions: susceptible glioma cells compared to resistant cells, 24 hrs
Description: as §4

GBM12 [7] = test: Click-it Plus OPP nascent protein synthesis; assay type: cell-based, human; conditions: GBM12, 5 μM, 24 hrs
GBM6 [8] = test: Etoposide dose-response viability; assay type: cell-based, human; conditions: GBM6, dose-response in vitro 72 hrs
Description: as §2

MES83 = test: Etoposide dose-response viability; assay type: cell-based, human; conditions: MES83, dose-response in vitro 72 hrs
Description: as §2

U251 [9] = test: Etoposide dose-response viability; assay type: cell-based, human; conditions: U251, dose-response in vitro 72 hrs
Description: as §2

GBM12 [10] = test: Etoposide dose-response viability; assay type: cell-based, human; conditions: GBM12, dose-response in vitro 72 hrs
Description: as §2

GBM43 = test: Etoposide dose-response viability; assay type: cell-based, human; conditions: GBM43, dose-response in vitro 72 hrs
Description: as §2

BCL2, GBM6 = test: BCL2 expression by flow cytometry; assay type: cell-based, human; conditions: GBM6, 24 hrs
SNB19 [11] = test: Viability assay (Titre glo), susceptible glioma cell line; assay type: cell-based, human; conditions: etoposide 5 μM, 72 hrs
Description: as §2

SNB19 [12] = test: Click-it Plus OPP nascent protein synthesis; assay type: cell-based, human; conditions: SNB19, 5 μM, 24 hrs
Description: as §4

COc1cccc2c1C(=O)c1c(O)c3c(c(O)c1C2=O)C[C@@](O)(C(=O)CO)C[C@@H]3O[C@H]1C[C@H](N)[C@H](O)[C@H](C)O1 [doxorubicin]
susceptibility (viability) (FANCB KO SNB19 cells): acquired resistance | susceptibility (viability) (RPS11 KO SNB19 cells): resistant

COc1cc([C@@H]2c3cc4c(cc3[C@@H](O[C@@H]3O[C@@H]5CO[C@@H](C)O[C@H]5[C@H](O)[C@H]3O)[C@H]3COC(=O)[C@H]23)OCO4)cc(OC)c1O [etoposide]
nascent proteins following etoposide treatment (U251 [1]): decrease in nascent proteins | cells surviving treatment (SNB19 cells): less than 1% | APAF1 protein following etoposide treatment (APAF1, RPS11 KO cells): decrease | APAF1 transcript following etoposide treatment (APAF1, RPS11 KO cells; 24 hrs): no significant expression changes | APAF1 transcript following etoposide treatment ([2]; SNB19 WT and non-targeting control cells, 24 hrs): significant induction | APAF1 protein levels following etoposide treatment ([2]; SNB19 wild-type and non-targeting control cells): increased | cell death [3]: minimal cell death | susceptibility (viability) (FANCB KO SNB19 cells): acquired resistance | nascent proteins following etoposide treatment (GBM6 [4]): no decrease in nascent proteins | BCL2 expression following etoposide treatment (BCL2, GBM12): increase | susceptibility (viability) (RPS11 KO SNB19 cells): resistant | intratumoral concentration in tumor tissue [5]: 2 to 6 µM | BID expression following etoposide treatment [6]: increased BID expression | nascent proteins following etoposide treatment (GBM12 [7]): no decrease in nascent proteins | susceptibility to etoposide (GBM6 [8]): resistance | susceptibility to etoposide (MES83): susceptible | susceptibility to etoposide (U251 [9]): susceptible | susceptibility to etoposide (GBM12 [10]): resistance | susceptibility to etoposide (GBM43): less sensitive | BCL2 expression following etoposide treatment (BCL2, GBM6): increase | cells death (SNB19 [11]): 80% | nascent proteins following etoposide treatment (SNB19 [12]): decrease in nascent proteins
